Assay results published in patent US5087562A, “Humoral hypercalcemic factor antagonists with modification at position 13 . . ” (Merck & Co., Inc., priority 1990, dated 1992).

Columns and labels:
[1] = molecular target: T1, Bovine renal cortical plasma membranes (HCF cell surface receptor) (Bos taurus, UniProt Q1LZF7); test: HCF binding assay (radioligand receptor assay); conditions: radioligand [Nle^8,18,(^125 I)-Tyr^34]bPTH(1-34)NH2, 30 min at 21° C
T1 construct: from tissue; host or cells: bovine renal cortex plasma membranes
T1 sequence (Q1LZF7 29-589): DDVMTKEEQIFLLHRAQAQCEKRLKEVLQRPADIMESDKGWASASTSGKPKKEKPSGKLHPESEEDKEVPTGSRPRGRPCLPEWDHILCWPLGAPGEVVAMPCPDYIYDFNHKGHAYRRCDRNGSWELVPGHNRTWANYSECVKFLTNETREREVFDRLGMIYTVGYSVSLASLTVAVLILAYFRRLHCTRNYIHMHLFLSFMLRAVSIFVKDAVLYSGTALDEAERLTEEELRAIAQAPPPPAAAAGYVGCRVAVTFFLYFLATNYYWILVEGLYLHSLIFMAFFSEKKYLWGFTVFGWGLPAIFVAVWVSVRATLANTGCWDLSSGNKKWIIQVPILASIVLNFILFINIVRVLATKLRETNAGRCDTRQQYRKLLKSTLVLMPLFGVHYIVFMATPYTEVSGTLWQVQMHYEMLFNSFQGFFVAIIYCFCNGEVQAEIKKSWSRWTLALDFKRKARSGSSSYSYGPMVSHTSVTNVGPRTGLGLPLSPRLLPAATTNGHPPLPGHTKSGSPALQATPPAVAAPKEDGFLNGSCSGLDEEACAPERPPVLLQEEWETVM
Procedure: HCF analogues were analysed in a new receptor assay which modified the assay reported in Rosenblatt et al., Endocrin 107: 545-550 (1980). The binding assay used [Nle^8,18, (^125 I)-Tyr^34 ]bPTH (1-34)NH2 which was purified by HPLC (Novapak C18, 32-35% CH3 CN in 0.1% TFA) and was stored as aliquots in 25 mM TrisHCl/1%BSAat -70° C. Bovine renal cortical plasma membranes were incubated with radioligand (25,000 cpm) in a Tris-containing buffer (250 μl) for 30 min. at 21° C. Once equilibrium was reached, bound and free radioligand were separated by centrifugation.
High specific binding (85%) to bovine renal cortical membranes was obtained consistently.
The assay reported on page 546 in Rosenblatt, et al. is as follows:
Radioligand binding assay: A PTH-binding assay based on the sulfur-free ^125 I-labeled hormone analog, [Nle-8,Nle-18,Tyr-34]-bPTH-(1-34)amide,was employed (4). The assay is specific and saturable with regard to PTH binding, and binding avidity in this system correlates closely with biological acitibity for multiple PTH agonist fragments and analogs. […] Inhibition of specific binding of radioligand was assessed for each fragment over several log orders of magnitude. […] In each assay, inhibition of radioligand binding was determined in triplicate at each concentration of peptide used.

[2] = test system: bovine renal membrane adenylate cyclase; conditions: bovine renal cortical membranes; quoted from Horiuchi et al.; cited from earlier work

With `CC[C@H](C)[C@H](NC(=O)[C@H](CC(C)C)NC(=O)[C@H](Cc1c[nH]cn1)NC(=O)[C@H](Cc1c[nH]cn1)NC(=O)[C@H](CC(C)C)NC(=O)[C@H](Cc1ccccc1)NC(=O)[C@H](Cc1ccccc1)NC(=O)[C@H](CCCNC(=N)N)NC(=O)[C@H](CCCNC(=N)N)NC(=O)[C@H](CCCNC(=N)N)NC(=O)[C@H](CC(C)C)NC(=O)[C@H](CC(=O)O)NC(=O)[C@H](CCC(N)=O)NC(=O)[C@@H](NC(=O)[C@H](CO)NC(=O)[C@H](CCCCNC(=O)CCc1ccccc1)NC(=O)[C@@H](Cc1c[nH]c2ccccc12)NC(=O)[C@H](CC(C)C)NC(=O)[C@H](CC(=O)O)NC(=O)[C@H](Cc1c[nH]cn1)NC(=O)CCC(C)C)[C@@H](C)CC)C(=O)N[C@@H](C)C(=O)N[C@@H](CCC(=O)O)C(=O)N[C@H](C(=O)N[C@@H](Cc1c[nH]cn1)C(=O)N[C@H](C(=O)N[C@@H](C)C(N)=O)[C@@H](C)O)[C@@H](C)CC` [desamino [Leu^11, D-Trp^12, Lys^13 (N^ε --CO(CH2)2 -Phenyl)]hHCF(8-34)NH2] the Kb [1] was 20 ± 3 nM.

In the case of hHCF-(1-34)NH2, the “potency in adenylate cyclase assay (stimulation)” value [2] is listed as “potency comparable to PTH”.
